In one test the target is T1, human LTA4 hydrolase (Homo sapiens, UniProt P09960).
T1 sequence (P09960 1-611): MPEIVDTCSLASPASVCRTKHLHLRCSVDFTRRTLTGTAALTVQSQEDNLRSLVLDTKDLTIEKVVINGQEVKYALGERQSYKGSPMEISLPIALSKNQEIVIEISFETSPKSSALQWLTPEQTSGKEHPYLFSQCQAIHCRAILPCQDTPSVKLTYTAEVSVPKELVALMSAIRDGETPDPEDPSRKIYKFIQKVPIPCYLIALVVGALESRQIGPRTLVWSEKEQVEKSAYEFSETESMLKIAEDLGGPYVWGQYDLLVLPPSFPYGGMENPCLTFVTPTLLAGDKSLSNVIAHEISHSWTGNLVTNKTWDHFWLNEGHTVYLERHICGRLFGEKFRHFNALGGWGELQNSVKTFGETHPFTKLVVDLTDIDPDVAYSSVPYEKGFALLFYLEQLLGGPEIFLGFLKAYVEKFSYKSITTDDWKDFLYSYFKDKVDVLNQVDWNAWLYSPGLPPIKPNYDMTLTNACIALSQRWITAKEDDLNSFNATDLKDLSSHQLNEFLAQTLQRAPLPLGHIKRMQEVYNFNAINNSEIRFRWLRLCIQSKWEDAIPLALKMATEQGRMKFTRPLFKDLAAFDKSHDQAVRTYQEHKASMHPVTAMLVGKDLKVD
Kind of test: LTA4H Enzyme assay (peptidase, Arg-AMC cleavage). The class given is biochemical. The settings on record: LTA4H enzyme 1 nM, Arg-AMC substrate 50 μM, room temperature 1 h, fluorescence 380/460 nm. A digest of the protocol:
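Human LTA4H (1 nM final) incubated with compound and Arg-AMC (50 μM final) in 50 mM Tris-HCl pH 7.5, 100 mM KCl, 0.5% BSA, 1 h at room temperature. Product read as AMC fluorescence (ex 380/em 460 nm); IC50 reported.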

The test system of test [1] is LTB4 synthesis in human whole blood. Kind of test: human whole blood (HWB) assay, inhibition of LTB4 production. The class given is cell-based. As to conditions: heparinized human whole blood, calcimycin 20 μM stimulation, plasma LTB4. The method in brief: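 Plasma LTB4, quantified by HTRF immunoassay, is the read-out after calcimycin challenge (20 μM final, 30 min, 37 °C) of heparinized whole blood that had been pretreated with compound for 15 min at 37 °C; values given as IC50.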

The values below come from patent US9403830B2, “Inhibitors of leukotriene production” (Boehringer Ingelheim International GmbH, priority 2012, dated 2016).

Turning to `CC(C)(O)C(=O)NC1CCN(CCn2cc3cc(Oc4ccc(-c5ccn[nH]5)cn4)ccc3n2)CC1` [Example 112, 2-Hydroxy-2-methyl-N-[1-(2-{5-[5-(2H-pyrazol-3-yl)-pyridin-2-yloxy]-indazol-2-yl}-ethyl)-piperidin-4-yl]-propionamide], the concentration for half-maximal inhibition (IC50) worked out at 2.1 nM at human LTA4 hydrolase and 280 nM in test [1].
Turning to `c1cc(-c2ccc(Oc3ccc4c(CN5CCOCC5)n[nH]c4c3)nc2)[nH]n1` [Example 113, 3-Morpholin-4-ylmethyl-6-[5-(2H-pyrazol-3-yl)-pyridin-2-yloxy]-1H-indazole], the IC50 was found to be 2.6 nM against human LTA4 hydrolase and 470 nM in test [1].
Consider `c1cc(-c2ccc(Oc3ccc4nc(CN5CCOCC5)oc4c3)cc2)[nH]n1` [Example 114, 2-morpholin-4-ylmethyl-6-[4-(2H-pyrazol-3-yl)-phenoxy]-benzoxazole], for which the half-maximal inhibitory concentration (IC50) against human LTA4 hydrolase is 0.75 nM; in test [1], 500 nM.
Taken in the same sequence, the figures for `CC(=O)N1CCN(c2ccc3cc(Oc4ccc(-c5ccn[nH]5)cn4)ccc3n2)CC1` [Example 115, 1-(4-{6-[5-(2H-Pyrazol-3-yl)-pyridin-2-yloxy]-quinolin-2-yl}-piperazin-1-yl)-ethanone] were 1.7 nM and 550 nM.
Regarding `CC(=O)NC1CCN(CCCn2cc3cc(Oc4ccc(-c5ccn[nH]5)cc4)ccc3n2)CC1` [Example 116, N-[1-(3-{5-[4-(2H-Pyrazol-3-yl)-phenoxy]-indazol-2-yl}-propyl)-piperidin-4-yl]-acetamide], the figures for the IC50 (against human LTA4 hydrolase; in test [1]) were 0.95 nM and 580 nM, respectively.
With `O=C1CC[C@@H](Cn2ncc3cc(Oc4ccc(-c5ccn[nH]5)cn4)ccc32)N1` [Example 117, (S)-5-{5-[5-(2H-Pyrazol-3-yl)-pyridin-2-yloxy]-indazol-1-ylmethyl}-pyrrolidin-2-one], the concentration for half-maximal inhibition (IC50) against human LTA4 hydrolase stood at 4.4 nM; in test [1] it was 650 nM.
Regarding `OCCCn1ncc2cc(Oc3ccc(-c4ccn[nH]4)cc3)ccc21` [Example 118, 3-{5-[4-(2H-Pyrazol-3-yl)-phenoxy]-indazol-1-yl}-propan-1-ol], the figures for the IC50 (against human LTA4 hydrolase; in test [1]) were 7 nM and 760 nM, respectively.
Consider `O=C1CC[C@@H](COc2nccc3cc(Oc4ccc(-c5ccn[nH]5)cc4)ccc23)N1` [Example 119, (S)-5-{6-[4-(2H-Pyrazol-3-yl)-phenoxy]-isoquinolin-1-yloxymethyl}-pyrrolidin-2-one], for which the values for the half-maximal inhibitory concentration (IC50) (at human LTA4 hydrolase; in test [1]) were 20 nM and 2000 nM, respectively.
Consider `c1cc(-c2ccc(Oc3ccc4nc(OCCN5CCOCC5)ccc4c3)nc2)[nH]n1` [Example 120, 2-(2-morpholin-4-yl-ethoxy)-6-[5-(2H-pyrazol-3-yl)-pyridin-2-yloxy]-quinoline], for which the IC50 against human LTA4 hydrolase came out at 25 nM; in test [1], 3100 nM.
For `CC(=O)NCCNCc1ccc2cc(Oc3ccc(-c4ccn[nH]4)cn3)ccc2n1` [Example 121, N-[2-({6-[5-(2H-Pyrazol-3-yl)-pyridin-2-yloxy]-quinolin-2-ylmethyl}-amino)-ethyl]-acetamide], the concentration for half-maximal inhibition (IC50) on human LTA4 hydrolase was 1.5 nM; in test [1] it was 390 nM.
Regarding `COCCN(C)Cc1ccc2cc(Oc3ccc(-c4ccn[nH]4)cn3)ccc2n1` [Example 122, (2-Methoxy-ethyl)-methyl-{6-[5-(2H-pyrazol-3-yl)-pyridin-2-yloxy]-quinolin-2-ylmethyl}-amine], the IC50 against human LTA4 hydrolase was found to be 0.97 nM; in test [1], 200 nM.
As to `CN(C)Cc1ccc2cc(Oc3ccc(-c4ccn[nH]4)cc3)ccc2n1` [Example 123, Dimethyl-{6-[4-(2H-pyrazol-3-yl)-phenoxy]-quinolin-2-ylmethyl}-amine], the IC50 against human LTA4 hydrolase came out at 0.44 nM; in test [1], 240 nM.
With `O=C(O)c1ccc(C2CCN(Cc3ccc4c(ccn4Cc4ccc(-c5ccn[nH]5)cc4)c3)CC2)cc1` [Example 124, 4-(1-{1-[4-(2H-pyrazol-3-yl)-benzyl]-1H-indol-5-ylmethyl}-piperidin-4-yl)-benzoic acid], the IC50 worked out at 0.061 nM against human LTA4 hydrolase and 130 nM in test [1].
In the same order, the values of `CC(=O)NC1CCN(CC2Cc3ccc(Oc4ccc(-c5ccn[nH]5)cn4)cc3O2)CC1` (stereo not drawn) [Example 125, N-(1-{6-[5-(2H-Pyrazol-3-yl)-pyridin-2-yloxy]-2,3-dihydro-benzofuran-2-ylmethyl}-piperidin-4-yl)-acetamide] are 0.29 nM and 100 nM.
In the same order, the values of `c1cc(-c2ccc(Oc3ccc4c(c3)OC(CN3CCCC3)C4)nc2)[nH]n1` (stereo not drawn) [Example 126, 5-(2H-Pyrazol-3-yl)-2-(2-pyrrolidin-1-ylmethyl-2,3-dihydro-benzofuran-6-yloxy)-pyridine] are 0.51 nM and 110 nM.
As for `c1cc(-c2ccc(Oc3ccc4cc(CN5CCCC5)oc4c3)nc2)[nH]n1` [Example 127, 5-(2H-Pyrazol-3-yl)-2-(2-pyrrolidin-1-ylmethyl-benzofuran-6-yloxy)-pyridine], the IC50 at human LTA4 hydrolase is 0.68 nM; in test [1], 130 nM.
Regarding `CC(=O)NCC1CCN(CC2Cc3ccc(Oc4ccc(-c5ccn[nH]5)cn4)cc3O2)CC1` (stereo not drawn) [Example 128, N-(1-{6-[5-(2H-Pyrazol-3-yl)-pyridin-2-yloxy]-2,3-dihydro-benzofuran-2-ylmethyl}-piperidin-4-ylmethyl)-acetamide], the IC50 at human LTA4 hydrolase came out at 0.74 nM; in test [1], 170 nM.
Taken in the same sequence, the figures for `O=C1CCCN1C1CCN(CC2Cc3ccc(Oc4ccc(-c5ccn[nH]5)cn4)cc3O2)CC1` (stereo not drawn) [Example 129, 1-(1-{6-[5-(2H-Pyrazol-3-yl)-pyridin-2-yloxy]-2,3-dihydro-benzofuran-2-ylmethyl}-piperidin-4-yl)-pyrrolidin-2-one] were 0.92 nM and 190 nM.
Taken in the same sequence, the figures for `O=C1OCCN1C1CCN(CCc2coc3cc(Oc4ccc(-c5ccn[nH]5)cn4)ccc23)CC1` [Example 130, 3-[1-(2-{6-[5-(2H-Pyrazol-3-yl)-pyridin-2-yloxy]-benzofuran-3-yl}-ethyl)-piperidin-4-yl]-oxazolidin-2-one] were 0.26 nM and 99 nM.
As for `CC(=O)N[C@H]1C[C@H]2CC[C@@H](C1)N2CC1Cc2ccc(Oc3ccc(-c4ccn[nH]4)cc3)cc2O1` (stereo partly drawn) [Example 131, N-((endo)-8-{6-[4-(2H-Pyrazol-3-yl)-phenoxy]-2,3-dihydro-benzofuran-2-ylmethyl}-8-aza-bicyclo[3.2.1]oct-3-yl)-acetamide], the concentration for half-maximal inhibition (IC50) was found to be 0.17 nM on human LTA4 hydrolase and 120 nM in test [1].
Regarding `O=C(CO)N1CC2CCC(C1)N2Cc1ccc2cc(Oc3ccc(-c4ccn[nH]4)cn3)ccc2n1` [Example 132, 2-Hydroxy-1-(8-{6-[5-(2H-pyrazol-3-yl)-pyridin-2-yloxy]-quinolin-2-ylmethyl}-3,8-diaza-bicyclo[3.2.1]oct-3-yl)-ethanone], the half-maximal inhibitory concentration (IC50) against human LTA4 hydrolase is 0.28 nM; in test [1] it was 140 nM.
`CC(=O)NC1CCN(CCc2coc3cc(Oc4ccc(-c5ccn[nH]5)cn4)ccc23)CC1` [Example 133, N-[1-(2-{6-[5-(2H-Pyrazol-3-yl)-pyridin-2-yloxy]-benzofuran-3-yl}-ethyl)-piperidin-4-yl]-acetamide]: the IC50 at human LTA4 hydrolase was found to be 0.35 nM; in test [1], 150 nM.
Taken in the same sequence, the figures for `CC(=O)N1CCCN(CCc2coc3cc(Oc4ccc(-c5ccn[nH]5)cn4)ccc23)CC1` [Example 134, 1-[4-(2-{6-[5-(2H-Pyrazol-3-yl)-pyridin-2-yloxy]-benzofuran-3-yl}-ethyl)-[1,4]diazepan-1-yl]-ethanone] were 0.28 nM and 150 nM.
Consider `CC(=O)N1CCCN(CCC2COc3cc(Oc4ccc(-c5ccn[nH]5)cn4)ccc32)CC1` (stereo not drawn) [Example 135, 1-[4-(2-{6-[5-(2H-Pyrazol-3-yl)-pyridin-2-yloxy]-2,3-dihydro-benzofuran-3-yl}-ethyl)-[1,4]diazepan-1-yl]-ethanone], for which the half-maximal inhibitory concentration (IC50) against human LTA4 hydrolase came to 0.56 nM; in test [1], 180 nM.
In the case of `CC(=O)N1CCN(CCc2coc3cc(Oc4ccc(-c5ccn[nH]5)cn4)ccc23)CC1` [Example 136, 1-[4-(2-{6-[5-(2H-Pyrazol-3-yl)-pyridin-2-yloxy]-benzofuran-3-yl}-ethyl)-piperazin-1-yl]-ethanone], the concentration for half-maximal inhibition (IC50) was determined as 0.63 nM against human LTA4 hydrolase and 190 nM in test [1].
`CNC(=O)C1CCN(CC2Cc3ccc(Oc4ccc(-c5ccn[nH]5)cc4)cc3O2)CC1` (stereo not drawn) [Example 137, 1-{6-[4-(2H-Pyrazol-3-yl)-phenoxy]-2,3-dihydro-benzofuran-2-ylmethyl}-piperidine-4-carboxylic acid methylamide]: the concentration for half-maximal inhibition (IC50) amounted to 0.57 nM against human LTA4 hydrolase and 190 nM in test [1].
Taken in the same sequence, the figures for `CNC(=O)C1CCN(CCc2coc3cc(Oc4ccc(-c5ccn[nH]5)cn4)ccc23)CC1` [Example 138, 1-(2-{6-[5-(2H-Pyrazol-3-yl)-pyridin-2-yloxy]-benzofuran-3-yl}-ethyl)-piperidine-4-carboxylic acid methylamide] were 0.39 nM and 190 nM.
